Measured values taken from US12527796B2, “[6R]-MTHF—an efficient folate alternative in 5-fluorouracil based chemotherapy” (Isofol Medical AB, priority 2017, dated 2026).

Assays:
[1] = system: stage IV colorectal cancer; test: ISO-CC-005 open-label Phase I/II dose cohort trial of [6R]-MTHF with 5-FU (response per RECIST 1.1, adverse events); assay type: in vivo, human
From the text: As used herein, the term ORR shall refer to the Objective Response Rate, ie. the proportion of patients with reduction in tumor burden of a predefined amount. […] (Note: the appearance of one or more new lesions is also considered progression). Stable Disease (SD): • Neither sufficient shrinkage to qualify for PR nor sufficient increase to qualify for PD, taking as reference the smallest sum diameters while on study. ([…], Schwartz […], Ford R, et al. New response evaluation criteria in solid tumours: revised RECIST guideline (version 1.1). Eur J Cancer. 2009 January; 45(2):228-47) […] A maximum of 63 Stage IV CRC patients eligible for 1st, 2nd or 3rd line treatment are planned to be enrolled in this study disposed as follows: three to six patients in each dose cohort, and three additional patients in one dose cohort in each treatment arm according to the following study design (Table 1). [table] […] Dosing: Rapid i.v. bolus injections at a fixed dose of 30, 60, 120 or 240 mg/m^2, will be administered approximately 30 minutes after administration of 5-FU on Day 1 and Day 2 in each treatment cycle in all ^dose cohorts of the study (i.e. regardless of treatment arm). The regimen will be repeated every second week for up to eight (8) cycles, i.e. up to sixteen (16) weeks. 5-FU (5-fluorouracil) is formulated as injection solution. Dosing: 5-FU will be administered as i.v. bolus injections on Day 1 and Day 2 in each treatment cycle. In Arm #2 and Arm #3 of the study, 5-FU will be administered approximately 60 minutes after start of Oxaliplatin or Irinotecan administration, respectively (see description below). The regimen will be repeated every second week for up to eight (8) cycles, i.e. up to sixteen (16) weeks. ISO-CC-005 is an open clinical phase I/II tolerability and dose definition study designed to evaluate safety and define the [6R]-MTHF dose for continued development. It evaluates four doses of [6R]-MTHF in combination with 5-FU with or without the different combinations of irinotecan or oxaliplatin and bevacizumab in patients with metastatic Colorectal Cancer using 4 different protocols: • MOD+5-FU: [6R]-MTHF in combination with 5-FU only, similar to Nordic FLV protocol • MOD+[…] in combination with 5-FU and Irinotecan, similar to Nordic FLIRI protocol • MOD+FLOX: [6R]-MTHF in combination with 5-FU and Oxaliplatin, similar to Nordic FLOX protocol • MOFOX: [6R]-MTHF in combination with 5-FU and Oxaliplatin, similar to FOLFOX-6 protocol The patients belong to several treatment lines ranging from first to third and even fifth lines. The results of the study are regularly assessed, and the results from the group of patients undergoing 1st line treatment and partially the group of patients undergoing 2nd, 3rd and 5th line treatment have previously (in August 2017) and again (December 2017) been analyzed. The clinical study is still ongoing. […] (see FIG. 2). Four (4) 1st line patients could not be followed for the additional 8 weeks' treatment due to study protocol formalities. No further 1st line patients had been analysed at this point.

[2] = system: metastatic colorectal carcinoma; conditions: modulation of 5-FU with LV; cited from earlier work
[3] = biological target: Thymidylate Synthase (Lacticaseibacillus casei, UniProt P00469); conditions: cited from earlier work
[4] = system: colorectal cancer; conditions: Phase IIb; cited from earlier work
[5] = system: pancreas cancer; conditions: combined with 5-FU; cited from earlier work
[6] = 1st line patients, 8 weeks' treatment
[7] = 30 patients, 1st, 2nd, 3rd and 5th line, after 8 weeks' treatment

Chain of Thymidylate Synthase (P00469 whole entry): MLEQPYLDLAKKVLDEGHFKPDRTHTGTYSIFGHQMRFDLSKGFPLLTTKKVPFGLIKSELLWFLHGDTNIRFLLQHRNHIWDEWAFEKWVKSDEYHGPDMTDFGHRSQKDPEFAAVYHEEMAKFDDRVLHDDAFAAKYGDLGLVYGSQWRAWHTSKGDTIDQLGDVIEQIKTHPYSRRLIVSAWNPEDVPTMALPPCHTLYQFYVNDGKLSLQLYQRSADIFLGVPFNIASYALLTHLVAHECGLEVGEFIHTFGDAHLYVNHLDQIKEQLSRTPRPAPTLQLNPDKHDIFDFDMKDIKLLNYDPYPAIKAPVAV

Nc1nc2c(c(=O)[nH]1)N1CN(c3ccc(C(=O)N[C@@H](CCC(=O)O)C(=O)O)cc3)C[C@H]1CN2 [[6R]-MTHF, [6R]-5,10-methylenetetrahydrofolate]
ORR [1, 6]: 50% | patients with clinical benefit, defined as stable disease or partial response [1, 6]: 100% | patients showing clinical benefit ([1]; 1st line patients, 16 weeks of treatment): 100% | patients with clinical benefit, defined as stable disease or partial response ([1]; 2nd, 3rd or 5th line patients (25), after 8 weeks' treatment): 64% | patients with partial response [1, 7]: 27% | patients with progressive disease [1, 7]: 13% | patients with stable disease [1, 7]: 60% | clinical benefit, defined as stable disease or tumor response, treated patients ([1]; [6R]-MTHF combined with 5-FU): > 90% | ORRs (objective response rates) ([1]; colorectal cancer patients, initial 5-FU followed by [6R]-MTHF): 50-60% | progression in the cancer after the initial 8 weeks' treatment ([1]; eight 1st line patients, 16 weeks of treatment): no progression | toxicity of 5-FU when combined with [6R]-MTHF, compared to 5-FU with other folate adjuvants ([1]; in vivo): reduced | patients showing Partial Response at 16 weeks ([1]; of eight 1st line patients): 5 patients | patients showing Stable Disease at 16 weeks ([1]; of eight 1st line patients): 3 patients | treated patients with at least a 25% decrease in the sum of the diameters of target lesions ([1]; reference baseline sum diameters, with 5-FU): ~65%

Nc1nc2c(c(=O)[nH]1)N(C=O)C(CNc1ccc(C(=O)N[C@@H](CCC(=O)O)C(=O)O)cc1)CN2 (stereo partly drawn) [Leucovorin]
time-to-progression (TTP) of disease [2]: prolongation of the time-to-progression (TTP)

Nc1nc2c(c(=O)[nH]1)N1CN(c3ccc(C(=O)N[C@@H](CCC(=O)O)C(=O)O)cc3)C[C@@H]1CN2 (single isomer, unassigned) [[6S]-isomer]
effect on the natural [6R]-isomer as co-substrate for TS [3]: partial competitive inhibitor

Nc1nc2c(c(=O)[nH]1)N1CN(c3ccc(C(=O)N[C@@H](CCC(=O)[O-])C(=O)[O-])cc3)CC1CN2.[Ca+2] (stereo partly drawn) [CoFactor, [6R,S]-5,10-methylene-THF Ca salt]
differences between the study arms (CoFactor vs leucovorin) with regard to efficacy or safety [4]: no significant differences | patients with clinical benefit, defined as stable disease or tumor response [5]: 40%
